Source: US20010055614A1, “Antidepressant therapy” (priority 1998, published 2001)
Structures can show the parent of a compound that is named as a salt.

Assays:
[1] = Solubility and dissolution rate of amitriptyline hydrochloride in artificial gastric and intestinal fluid; assay type: physicochemical
Method: Dosage form 10 controls the exit 13 surface area for releasing drug 16 essentially independent of the pH of the drug receiving biological receptor, thereby essentially preventing crystallizing drug 16 in exit 13, or essentially preventing blocking exit 13 with nonreleased drug 16. […] In artificial intestinal fluid at 37° C. the drug dissolution rate in artificial intestinal fluid at pH 7.5 is low compared to the dissolution rate in a lower pH such as gastric fluid having a pH of about 2. […] The dissolution rate is sensitive to pH changes, and when drug 16 is pumped from the dosage form it tends to crystallize at higher pH in orifice exit 13, or to partially block orifice exit 13, which in either instance, slows the drug release rate, and decreases the cumulative amount of drug released from the dosage form. The present invention by providing coated granules of antidepressant tricyclic drug 16, and by providing an orifice in the range of 1 mil to 30 mil (0.0254 mm to 0.760 mm), essentially overcomes the problems discussed above. […] In drawing FIG. 6, the release rate is given on the y-axis and the orifice surface area in mils and in mm^2 is given on the x-axis. The release of drug from the dosage form was measured in artificial intestinal fluid. […] Drawing FIG. 9 depicts the cumulative amount of drug release in mg, over a period of 24 hours for a coated drug through a 10 mil (0.254 mm) exit orifice illustrates about 100% of the drug is delivered free of crystalizing in the orifice. Drawing FIG. 10 depicts the release rate measured in artificial gastric fluid over zero to two hours and then in artificial intestinal fluid over two to twenty-four hours, through a 10 mil (0.254 mm) orifice illustrates about 90% of the drug is delivered under these conditions. […] The antidepressant drug is dose delivered independent of pH as found in the gastrointestinal drug and free from sticking or blocked delivery to a patient.

[2] = pKa of amitriptyline hydrochloride; assay type: physicochemical

## CN(C)CCC=C1c2ccccc2CCc2ccccc21 [amitriptyline hydrochloride]
[1]; 7.5 pH, artificial intestinal fluid, compared to artificial gastric fluid at pH 6
  solubility (in words): soluble, but the solubility is less
[1]; artificial gastric fluid, pH 6, simulated gastric fluid
  solubility: > 600 mg/mL
[1]; artificial intestinal fluid at pH 7.5, 37° C., compared to gastric fluid pH about 2
  dissolution rate (in words): low
[2]
  pKa: 9.4
